Experimental data from patent US20060270640A1, “Method of preventing, medicating, and/or treating hypocalcemia of domestic mammal” (Mercian Corporation, priority 2004, published 2006).

How the values were obtained:
[1] = type: in vivo, cow; conditions: intravaginal 1 μg/kg 1α-VD3; two Holstein cows
Source text: Biochemical changes in blood were observed by administering 1α-hydroxyvitamin D3 to the vaginal cavities of cows.
Test animals used were two Holstein dairy cows (Cow A and Cow B) described below. During a test period, the cows were raised by the free grazing of hay (free water drinking) in a field paddock as well as feeding with 2 kg/day of formula feed (64.1% TDN, 13.6% CP, 0.2% Ca, 0.09% Mg, and 1.39% K in DM).
Cow A: 35months old, female, single birth, ovariectomized, 560 kg
Cow B: 34months old, female, single birth, ovariectomized, 580 kg
The following test drug was used: • 1α-hydroxyvitamin D3 (1α-VD3; manufactured by Nisshin Pharma Co., Ltd., powder).
Test contents and schedules were as follows: • 1. Control test: intravaginal administration of 4 mL of 20% ethanol (for 1 week); and • 2. 1α-VD3 test: intravaginal administration of 1 μg/kg (by body weight) of 1α-VD3 dissolved in 4 mL of 20% ethanol (for 2 weeks).
Intravaginal administration was performed by the following procedure:
The above-described reagent was prepared on ice water and then administered, with a 10-mL plastic syringe, to a deep region in the vagina of the test cows previously allowed to urinate and vulva skin was immediately closed with an instant adhesive.
In each test, blood was collected immediately before administration (0 hour) and at 0.5, 1, 2, 3, 6, 12, 24, 48, and 72 hours (hrs) after administration. […]

[2] = Intravaginal administration of VitAD3E to cows, biochemical changes in blood (Comparative Example 1); conditions: intravaginal VitA 10,000,000 IU + VitD3 5,000,000 IU + VitE 920 IU in 8 mL with 20% ethanol per cow; two Holstein cows
Method: Vitamin A, vitamin D3, and vitamin E were administered to the vaginal cavities of cows to observe biochemical changes in blood after administration in the same manner as in Example 1 except that test drugs, test contents, and biochemical examination items of blood were as described in the following (1) to (3).
• Vitamin A (VitA; bulk for drug production, liquid); • Vitamin D3 (VitD3; bulk for drug production, liquid); and • Vitamin E (VitE; bulk for drug production, liquid). (2) Test Contents • VitAD3E test: intravaginal administration of VitA (10,000,000 IU)+VitD3 (5,000,000 IU)+VitE (920 IU) brought up to 8 mL per cow with 20% ethanol. (3) Biochemical Examination Items of Blood • Control test: VitA, 25-hydroxyvitamin D3 (25-OHD3), VitE, calcium (Ca), inorganic phosphorus (iP), and magnesium (Mg); and • VitAD3E test: VitA, 25-OHD3, and VitE.
The shifts of VitA, 25-OHD3, and VitE concentrations in blood by the intravaginal administration of VitAD3E were observed by the above-described procedure.

| Molecule | effect on Ca metabolism [1] | intravaginal absorption of the drug [2] |
| --- | --- | --- |
| C=C1/C(=C\C=C2/CCC[C@]3(C)[C@@H]([C@H](C)CCCC(C)C)CC[C@@H]23)C[C@@H](O)C[C@@H]1O [1α-VD3, 1α-hydroxyvitamin D3] | affecting Ca metabolism | – |
| C=C1CC[C@H](O)C/C1=C/C=C1\CCC[C@]2(C)[C@@H]([C@H](C)CCCC(C)C)CC[C@@H]12 [vitamin D3, Vitamin D3] | – | No evidence that administered drugs were absorbed from the vaginal wall was confirmed |
| Vitamin E | – | No evidence that administered drugs were absorbed from the vaginal wall was confirmed |
